According to US9096596B2 (Janssen Pharmaceutica NV, priority 2013, dated 2015):

Tests used:
Format in all cases: cell-based
rat P2X7 = rat P2X7 (Rattus norvegicus (Rat), UniProt Q64663); test: Ca2+ flux (FLIPR) in 1321N1 cells expressing recombinant rat P2X7 channel; settings: 250 μM BzATP, Calcium-4 dye
Description: (§1) 1321N1 cells expressing the recombinant human, rat or mouse P2X7 channel was cultured in HyQ DME/(HyClone/Dulbecco's Modified Eagle Medium) high glucose supplemented with 10% Fetal Bovine Serum (FBS) and appropriate selection marker. Cells were seeded at a density of 25000 cells/well (96-well clear bottom black walled plates) in 100 μl volume/well. On the day of the experiment, cell plates were washed with assay buffer, containing (in mM): 130 NaCl, 2 KCl, 1 CaCl2, 1 MgCl2, 10 HEPES, 5 glucose; pH 7.40 and 300 mOs. After the wash, cells were loaded with the Calcium-4 dye (Molecular Device) and incubated in the dark for 60 minutes. Test compounds were prepared at 250× the test concentration in neat DMSO. Intermediate 96-well compound plates were prepared by transferring 1.2 μL of the compound into 300 μL of assay buffer. A further 3× dilution occurred when transferring 50 μL/well of the compound plate to 100 μL/well in the cell plate. Cells were incubated with test compounds and dye for 30 minutes. […] The fluorescence change was measured 180 seconds after adding the agonist.

P2X7 [1] = biological target: T1, P2X7 (Homo sapiens (Human), UniProt Q99572); test: P2X7 antagonism in human PBMCs (IL-1β release, ELISA); settings: test compound 10 μM, IL-1β release in human PBMCs, LPS 30 ng/ml + Bz-ATP 0.5 mM, read-out: PBMC 10 μM (% control)
T1 sequence (Q99572 whole entry): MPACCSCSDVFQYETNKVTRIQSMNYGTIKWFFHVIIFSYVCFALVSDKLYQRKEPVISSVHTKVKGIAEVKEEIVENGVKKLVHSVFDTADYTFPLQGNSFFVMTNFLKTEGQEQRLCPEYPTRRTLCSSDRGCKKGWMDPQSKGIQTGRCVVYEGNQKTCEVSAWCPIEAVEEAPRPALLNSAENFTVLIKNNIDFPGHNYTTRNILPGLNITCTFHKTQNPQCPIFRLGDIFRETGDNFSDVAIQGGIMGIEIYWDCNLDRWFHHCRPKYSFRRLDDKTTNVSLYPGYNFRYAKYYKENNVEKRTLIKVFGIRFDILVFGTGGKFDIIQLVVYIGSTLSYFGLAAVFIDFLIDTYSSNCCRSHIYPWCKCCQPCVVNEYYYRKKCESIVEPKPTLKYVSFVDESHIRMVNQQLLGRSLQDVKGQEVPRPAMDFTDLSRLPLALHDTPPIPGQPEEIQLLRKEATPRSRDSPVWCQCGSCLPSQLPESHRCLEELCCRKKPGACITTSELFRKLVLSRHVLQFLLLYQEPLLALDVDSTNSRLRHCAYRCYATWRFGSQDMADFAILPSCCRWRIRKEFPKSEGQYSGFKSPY
Description: Human blood was collected using a blood donor program. […] Cells were incubated for an additional 1.5 hours. […] In Table 2, when the data cell has been left blank, it is intended to mean that the compound was not tested in that assay.

P2X7 [2] = biological target: T1, P2X7; test: Ca2+ flux (FLIPR) in 1321N1 cells expressing recombinant human P2X7 channel; settings: 250 μM BzATP, Calcium-4 dye
Description: as §1

Chain of rat P2X7 (Q64663 whole entry): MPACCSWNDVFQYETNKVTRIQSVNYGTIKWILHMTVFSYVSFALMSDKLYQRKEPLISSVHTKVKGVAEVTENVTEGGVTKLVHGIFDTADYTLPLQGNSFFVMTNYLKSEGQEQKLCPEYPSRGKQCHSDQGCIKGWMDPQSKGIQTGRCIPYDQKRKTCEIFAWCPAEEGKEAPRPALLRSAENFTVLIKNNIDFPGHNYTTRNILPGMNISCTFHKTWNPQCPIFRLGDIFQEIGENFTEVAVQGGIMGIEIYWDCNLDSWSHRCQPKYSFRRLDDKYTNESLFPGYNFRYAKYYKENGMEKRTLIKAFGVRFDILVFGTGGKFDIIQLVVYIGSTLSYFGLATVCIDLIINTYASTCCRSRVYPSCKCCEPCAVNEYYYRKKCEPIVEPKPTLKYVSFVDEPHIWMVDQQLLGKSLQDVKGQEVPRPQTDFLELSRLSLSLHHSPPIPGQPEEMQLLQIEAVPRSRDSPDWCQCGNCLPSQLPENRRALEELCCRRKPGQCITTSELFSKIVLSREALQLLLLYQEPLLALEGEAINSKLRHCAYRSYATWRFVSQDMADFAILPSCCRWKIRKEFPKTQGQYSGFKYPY

CC1c2ncnc(-c3ccn[nH]3)c2CCN1C(=O)c1cccc(C(F)(F)F)c1Cl (stereo not shown) [Example 112, (2-chloro-3-(trifluoromethyl)phenyl)(8-methyl-4-(1H-pyrazol-5-yl)-5,6-dihydropyrido[3,4-d]pyrimidin-7(8H)-yl)methanone]
IC50 (rat P2X7): 16 nM
remaining activity at 10 µM (P2X7 [1]): -1.8%

CC1c2ncnc(-c3ccn[nH]3)c2CCN1C(=O)c1ccc(F)c(Cl)c1Cl (stereo not shown) [Example 118, (2,3-dichloro-4-fluorophenyl)(8-methyl-4-(1H-pyrazol-5-yl)-5,6-dihydropyrido[3,4-d]pyrimidin-7(8H)-yl)methanone]
IC50 (rat P2X7): 21 nM
remaining activity at 10 µM (P2X7 [1]): -0.6%

Cc1nc2c(c(-c3ccn[nH]3)n1)C[C@H](C)N(C(=O)c1cccc(C(F)(F)F)c1C)C2 (single isomer, unassigned) [Example 79, (S*)-(2,6-dimethyl-4-(1H-pyrazol-5-yl)-5,6-dihydropyrido[3,4-d]pyrimidin-7(8H)-yl)(2-methyl-3-(trifluoromethyl)phenyl)methanone]
IC50 (P2X7 [2]): 3240 nM

Nc1nc2c(c(-c3ccccc3)n1)CCN(C(=O)c1cccc(Cl)c1Cl)C2 [Example 29, 7-[(2,3-Dichlorophenyl)carbonyl]-4-phenyl-5,6,7,8-tetrahydropyrido[3,4-d]pyrimidin-2-amine]
IC50 (P2X7 [2]): 796 nM

Nc1nc2c(c(-c3ccn[nH]3)n1)CCN(C(=O)c1cccc(C(F)(F)F)c1Cl)C2 [Example 55, 7-{[2-Chloro-3-(trifluoromethyl)phenyl]carbonyl}-4-(1H-pyrazol-5-yl)-5,6,7,8-tetrahydropyrido[3,4-d]pyrimidin-2-amine]
IC50 (rat P2X7): 117 nM
remaining activity at 10 µM (P2X7 [1]): -2.1%

Cc1nc2c(c(-c3ccn[nH]3)n1)C[C@@H](C)N(C(=O)c1ccc(F)cc1F)C2 (single isomer, unassigned) [Example 94, (R*)-(2,4-difluorophenyl)(2,6-dimethyl-4-(1H-pyrazol-5-yl)-5,6-dihydropyrido[3,4-d]pyrimidin-7(8H)-yl)methanone]
IC50 (rat P2X7): > 10000 nM
IC50 (P2X7 [2]): > 10000 nM

CCc1nc2c(c(-c3ccn[nH]3)n1)CC(C)N(C(=O)c1ccc(Cl)c(F)c1Cl)C2 (stereo not shown) [Example 104, (2,4-dichloro-3-fluorophenyl)(2-ethyl-6-methyl-4-(1H-pyrazol-5-yl)-5,6-dihydropyrido[3,4-d]pyrimidin-7(8H)-yl)methanone]
IC50 (rat P2X7): 23.7 nM
remaining activity at 10 µM (P2X7 [1]): -1.3%

COCCn1ccc(-c2nc(C)nc3c2C[C@H](C)N(C(=O)c2cccc(C(F)(F)F)c2Cl)C3)n1 (single isomer, unassigned) [Example 127, (S*)-(2-chloro-3-(trifluoromethyl)phenyl)(4-(1-(2-methoxyethyl)-1H-pyrazol-3-yl)-2,6-dimethyl-5,6-dihydropyrido[3,4-d]pyrimidin-7(8H)-yl)methanone]
IC50 (rat P2X7): > 10000 nM
IC50 (P2X7 [2]): > 10000 nM

Cc1nc2c(c(-c3ccnn3C)n1)CC(C)N(C(=O)c1cccc(C(F)(F)F)c1Cl)C2 (stereo not shown) [Example 73, (2-chloro-3-(trifluoromethyl)phenyl)(2,6-dimethyl-4-(1-methyl-1H-pyrazol-5-yl)-5,6-dihydropyrido[3,4-d]pyrimidin-7(8H)-yl)methanone]
IC50 (rat P2X7): 17.8 nM
remaining activity at 10 µM (P2X7 [1]): 2.2%

CC(C)c1nc2c(c(-c3ccn[nH]3)n1)CC(C)N(C(=O)c1cccc(C(F)(F)F)c1Cl)C2 (stereo not shown) [Example 101, (2-chloro-3-(trifluoromethyl)phenyl)(2-isopropyl-6-methyl-4-(1H-pyrazol-5-yl)-5,6-dihydropyrido[3,4-d]pyrimidin-7(8H)-yl)methanone]
remaining activity at 10 µM (P2X7 [1]): 13.6%

CC1c2ncnc(-c3ccn[nH]3)c2CCN1C(=O)c1ccc(Cl)c(F)c1Cl (stereo not shown) [Example 121]
remaining activity at 10 µM (P2X7 [1]): 0.7%

Cc1nc2c(c(-c3cnoc3)n1)CCN(C(=O)c1cccc(C(F)(F)F)c1Cl)C2 [Example 49, 7-{[2-Chloro-3-(trifluoromethyl)phenyl]carbonyl}-4-isoxazol-4-yl-2-methyl-5,6,7,8-tetrahydropyrido[3,4-d]pyrimidine]
remaining activity at 10 µM (P2X7 [1]): 16.3%

Cc1nc2c(c(-c3ccn[nH]3)n1)CC(C)N(C(=O)c1ccc(F)c(Cl)c1Cl)C2 (stereo not shown) [Example 80, (2,3-dichloro-4-fluorophenyl)(2,6-dimethyl-4-(1H-pyrazol-5-yl)-5,6-dihydropyrido[3,4-d]pyrimidin-7(8H)-yl)methanone]
remaining activity at 10 µM (P2X7 [1]): 18.4%

Cc1noc(C)c1-c1ncnc2c1CCN(C(=O)c1cccc(C(F)(F)F)c1Cl)C2 [Example 50, 7-{[2-Chloro-3-(trifluoromethyl)phenyl]carbonyl}-4-(3,5-dimethylisoxazol-4-yl)-5,6,7,8-tetrahydropyrido[3,4-d]pyrimidine]
remaining activity at 10 µM (P2X7 [1]): 83.5%

Cc1nc2c(c(-c3ccccn3)n1)CCN(C(=O)c1cccc(Cl)c1Cl)C2 [Example 31, 7-[(2,3-Dichlorophenyl)carbonyl]-2-methyl-4-pyridin-2-yl-5,6,7,8-tetrahydropyrido[3,4-d]pyrimidine]
remaining activity at 10 µM (P2X7 [1]): 9.2%

Cc1nc2c(c(-c3ccn[nH]3)n1)CCN(C(=O)c1cccc(C(F)(F)F)c1F)C2 [Example 51, 7-{[2-Fluoro-3-(trifluoromethyl)phenyl]carbonyl}-2-methyl-4-(1H-pyrazol-5-yl)-5,6,7,8-tetrahydropyrido[3,4-d]pyrimidine]
remaining activity at 10 µM (P2X7 [1]): 17.3%

Cc1nc2c(c(-c3ccn[nH]3)n1)CC(C)N(C(=O)c1cc(Cl)ccc1Cl)C2 (stereo not shown) [Example 86, (2,5-dichlorophenyl)(2,6-dimethyl-4-(1H-pyrazol-5-yl)-5,6-dihydropyrido[3,4-d]pyrimidin-7(8H)-yl)methanone]
remaining activity at 10 µM (P2X7 [1]): 92.2%

O=C(c1cccc(C(F)(F)F)c1Cl)N1CCc2c(ncnc2-c2ccnn2C2CCCCO2)C1 (stereo not shown) [Example 17, 7-{[2-Chloro-3-(trifluoromethyl)phenyl]carbonyl}-4-[1-(tetrahydro-2H-pyran-2-yl)-1H-pyrazol-5-yl]-5,6,7,8-tetrahydropyrido[3,4-d]pyrimidine]
remaining activity at 10 µM (P2X7 [1]): 9.9%

CC1c2ncnc(-c3ccn[nH]3)c2CCN1C(=O)c1ccc(F)c(C(F)(F)F)c1Cl (stereo not shown) [Example 115, (2-chloro-4-fluoro-3-(trifluoromethyl)phenyl)(8-methyl-4-(1H-pyrazol-5-yl)-5,6-dihydropyrido[3,4-d]pyrimidin-7(8H)-yl)methanone]
remaining activity at 10 µM (P2X7 [1]): -3.1%

CN(C)c1nc2c(c(-c3ccccc3)n1)CCN(C(=O)c1cccc(Cl)c1Cl)C2 [Example 25, 7-[(2,3-Dichlorophenyl)carbonyl]-N,N-dimethyl-4-phenyl-5,6,7,8-tetrahydropyrido[3,4-d]pyrimidin-2-amine]
remaining activity at 10 µM (P2X7 [1]): 10.8%

Cc1nc2c(c(-c3ccn[nH]3)n1)CCN(C(=O)c1cccc(C(F)(F)F)c1C)C2 [Example 52, 2-Methyl-7-{[2-methyl-3-(trifluoromethyl)phenyl]carbonyl}-4-(1H-pyrazol-5-yl)-5,6,7,8-tetrahydropyrido[3,4-d]pyrimidine]
remaining activity at 10 µM (P2X7 [1]): 9.3%

Cc1cccc(C(=O)N2CCc3c(ncnc3-c3ccccn3)C2)c1Cl [Example 13, 7-[(2-Chloro-3-methylphenyl)carbonyl]-4-pyridin-2-yl-5,6,7,8-tetrahydropyrido[3,4-d]pyrimidine]
remaining activity at 10 µM (P2X7 [1]): 13.4%

Cc1nc2c(c(-c3ccc(F)cc3)n1)CCN(C(=O)c1cccc(Cl)c1Cl)C2 [Example 28, 7-[(2,3-Dichlorophenyl)carbonyl]-4-(4-fluorophenyl)-2-methyl-5,6,7,8-tetrahydropyrido[3,4-d]pyrimidine]
IC50 (rat P2X7): 8570 nM
remaining activity at 10 µM (P2X7 [1]): 12.4%

Cc1nc2c(c(-c3ccc[nH]3)n1)CCN(C(=O)c1cccc(C(F)(F)F)c1Cl)C2 [Example 45, 7-{[2-Chloro-3-(trifluoromethyl)phenyl]carbonyl}-2-methyl-4-(1H-pyrrol-2-yl)-5,6,7,8-tetrahydropyrido[3,4-d]pyrimidine]
remaining activity at 10 µM (P2X7 [1]): 7.1%

Cc1nc2c(c(-c3ccn[nH]3)n1)CC(C)N(C(=O)c1cccc(C(F)(F)F)c1F)C2 (stereo not shown) [Example 74, (2,6-dimethyl-4-(1H-pyrazol-5-yl)-5,6-dihydropyrido[3,4-d]pyrimidin-7(8H)-yl)(2-fluoro-3-(trifluoromethyl)phenyl)methanone]
remaining activity at 10 µM (P2X7 [1]): 22.5%

Cc1nc2c(c(-c3ccccc3)n1)CCN(C(=O)c1cccc(C(F)(F)F)c1Cl)C2 [Example 32, 7-{[2-Chloro-3-(trifluoromethyl)phenyl]carbonyl}-2-methyl-4-phenyl-5,6,7,8-tetrahydropyrido[3,4-d]pyrimidine]
IC50 (P2X7 [2]): 265 nM

Cc1nc2c(c(-c3ccn[nH]3)n1)C[C@@H](C)N(C(=O)c1ccc(Cl)cc1F)C2 (single isomer, unassigned) [Example 88, (R*)-(4-chloro-2-fluorophenyl)(2,6-dimethyl-4-(1H-pyrazol-5-yl)-5,6-dihydropyrido[3,4-d]pyrimidin-7(8H)-yl)methanone]
IC50 (P2X7 [2]): 11000 nM

Cc1nc2c(c(-c3ccn[nH]3)n1)CC(C)N(C(=O)c1cccc(Cl)c1Cl)C2 (stereo not shown) [Example 67, (2,3-dichlorophenyl)(2,6-dimethyl-4-(1H-pyrazol-5-yl)-5,6-dihydropyrido[3,4-d]pyrimidin-7(8H)-yl)methanone]
IC50 (rat P2X7): 14.5 nM
remaining activity at 10 µM (P2X7 [1]): -1.3%
